# Source: patent US20100055111A1, “INDOLEAMINE 2,3-DIOXYGENASE, PD-1/PD-L PATHWAYS, AND CTLA4 PATHWAYS IN THE ACTIVATION OF REGULATORY T CELLS” (Med. College of Georgia Research Institute, Inc., priority 2007, published 2010)
# Entries after “also recorded” stand apart in the source; their conditions may differ.
# Experiments:
# TDLN cells = type: in vivo, mouse
# Tregs [1] = test: Treg activation culture and readout assays (agent in pre-activation step); type: cell-based, mouse; settings: for IDO-induced Treg activation (suppressor activity of re-sorted Tregs in readout assays): agent added to activation (pre-activation) cultures with TDLN pDCs + OT-I + feeder cells, 1MT 200 uM, anti-CTLA4 10 ug/ml, tryptophan 250 uM, readout A1 T cells + CBA DCs
# Method: Treg activation culture and readout assays. […] The pDC fraction (CD11c^+B220^+) was sorted from 2-6 pooled TDLNs (day 7-11 of tumor growth) and collected in medium on ice. […] […] […] After two days, cultures were harvested, stained for CD4, and Tregs isolated by sorting for CD4^+ cells. […] Re-sorted Tregs were added to readout assays containing 1×10^5 A1 cells, 2×10^3 CD11c^+ DCs from CBA spleen (or 5×10^4 B cells, as CD11c^NEG B220^+ spleen cells), plus H-Y peptide. For assays performed in transwells, Multiwell 96-well insert plates (1 uM pore size, BD-Falcon) were used and the number of cells in all groups was doubled.
# Feeder layer. […] As a feeder layer we added T cell-depleted spleen cells (1×10^5 sorted CD4^NEGCD8^NEG cells) to all assays.
# Resting Tregs, from spleens of mice without tumors, were co-cultured with IDO^+ DCs from TDLNs, then re-sorted and transferred to readout assays (A1 T cells+CBA DCs) to measure suppression. […] Co-cultures also contained a feeder layer of T-depleted spleen cells as described in the Methods section. After 30-48 hours, co-cultures were harvested and the Tregs recovered by sorting for CD4^+ cells. Since the Tregs were the only CD4^+ cells in the co-cultures, they could be unambiguously recovered.
# CHOP = test: Intracellular staining for CHOP in Treg activation cultures; type: cell-based, mouse; settings: 2 days
# Method: (§1) FACS staining. Antibodies were from BD-Pharmingen unless otherwise noted. Anti-mouse CD25-APC conjugate (clone PC61, cat. #17-0251-81) was from eBioscience; this conjugate gave brighter signal and better separation of CD25^+ cells than other conjugates from other suppliers. For intracellular staining of CHOP, live cells were first blocked for 10 minutes with mouse Fc Block (BD Pharmingen) in 10% fetal calf serum medium, stained with anti-CD4-FITC for 30 minutes on ice, washed with PBS, then fixed and permeablized for 20 minutes in 250 μl Cytoperm/Cytofix solution (BD Pharmingen) on ice. All subsequent staining and wash steps were in BD Permwash solution. Fixed cells were stained with 1:100 dilution of monoclonal anti-gadd153/CHOP (sc-7351, Santa Cruz Biotechnology), washed, and stained with secondary monoclonal rat anti-mouse-IgG1-PE (#550083, BD Biosciences). […] For Foxp3 staining, anti-Foxp3-PE antibody (clone FJK-16s) was obtained from eBioscience and used per the manufacturer's protocol. For Foxp3 staining, assays omitted A1 bystander cells and Tregs were identified by CD4 expression, as for CHOP staining. Biotinylated anti-PD-L1 (clone MIH5) and anti-PD-L2 (clone TY25) were purchased from eBioscience.
# GCN2-kinase is required for Treg activation. […] Treg activation cultures were set up as in FIG. 2, and CHOP expression measured by intracellular staining after two days.
# Foxp3 = Foxp3 upregulation in naive CD4+CD25NEG A1 T cells in cocultures with IDO+ pDCs; type: cell-based, mouse
# Method: FACS staining. Antibodies were from BD-Pharmingen unless otherwise noted. […] For intracellular staining of CHOP, live cells were first blocked for 10 minutes with mouse Fc Block (BD Pharmingen) in 10% fetal calf serum medium, stained with anti-CD4-FITC for 30 minutes on ice, washed with PBS, then fixed and permeablized for 20 minutes in 250 μl Cytoperm/Cytofix solution (BD Pharmingen) on ice. All subsequent staining and wash steps were in BD Permwash solution. […] For Foxp3 staining, assays omitted A1 bystander cells and Tregs were identified by CD4 expression, as for CHOP staining.
# Therefore, whether IDO would induce naive CD4+ cells to differentiate into Foxp3^+ cells in this system was studied. Cocultures were set up as shown for FIG. 6A, comprising IDO^+ pDCs, OT-I, feeder cells, mature Tregs (Thy1.1 congenic), plus a population of CD4^+CD25^NEG T cells (naive male-specific A1 T cells isolated from female mice). CBA splenic DCs were also added to serve as APCs for the A1 cells. After two days, co-cultures were harvested and stained for intracellular Foxp3.
# Tregs [2] = test: DC adoptive transfer; type: in vivo, mouse; settings: recipient mice treated with sustained-release 1MT pellets 5 mg/day; Tregs sorted after 4 days
# From the text: DC adoptive transfer. […] Briefly, total CD11c^+ DCs were sorted from TDLNs, pulsed with […] peptide (SEQ ID NO:1), and 5×10^4 DCs injected subcutaneously into each anteriomedial thigh of recipient mice. Recipients had been pre-loaded one day before DC injection with 5×10^6 sorted CD8^+ OT-I cells. After four days, the inguinal LNs draining the site of DC injection were removed, and CD4^+CD25^+ Tregs were isolated by cell sorting.
# IDO^+ DCs from TDLNs activate Tregs in vivo. To test the hypothesis that Treg activation in TDLNs might be related to the presence of IDO-expressing DCs, the DC population (CD11c^+ cells) from TDLNs was isolated and transferred to new, non-tumor-bearing hosts. […] Four days after DC transfer, host Tregs were sorted from LNs draining the site of DC injection and tested for suppressor activity. […] Thus, the DC fraction from TDLNs, by itself, was sufficient to activate resting Tregs in new hosts, in an IDO-dependent fashion.
# OT-I cells in TDLNs = test: CFSE labeling and T cell adoptive transfer; type: in vivo, mouse; settings: B16-OVA tumors, 4 days after transfer
# From the text: CFSE labeling and T cell adoptive transfer. Mice were implanted with B16-OVA tumors. […] After four days, the TDLNs and contralateral LNs (CLN) were harvested and stained for 1B11 (BD-Pharmingen) vs. CD8.
# PD-L1 and PD-L2 = PD-L1 and PD-L2 staining of DCs in readout assays; type: cell-based, mouse; settings: Tregs from pre-activation cultures in which IDO was blocked with 1MT
# Method: as §1, with “For Foxp3 staining, assays omitted A1 bystander cells and Tregs were identified by CD4 expression, as for CHOP staining. Biotinylated anti-PD-L1 (clone MIH5) and anti-PD-L2 (clone TY25) were purchased from eBioscience.” left out
# After 24 hours, cultures were harvested and stained for PD-L1 and PD-L2 relative to CD11c. […] In FIG. 3D, IDO-activated Tregs (1×10^4/well) and anti-CD3/IL-2-activated Tregs (2×10^4/well) were prepared as in the previous panel, and added to readout assays with or without recombinant IL-2, anti-IL-10 plus anti-TGF-β blocking antibodies (100 μg/ml each), or PD-1/PD-L blocking antibodies. […]
# Tregs [3] = test: Mixed co-cultures with bystander A1 cells; type: cell-based, mouse
# Method: A1 T cells and CBA DCs were added directly to the Treg pre-activation assay at the start of culture. Thus, the combined cultures comprised IDO^+ pDCs, OT-I T cells, Tregs, A1 T cells, CBA splenic DCs, and feeder layer. […] However, the mixed co-cultures addressed the specific question of whether IDO and activated Tregs could produce effective levels of suppression rapidly enough that they could suppress the bystander A1 cells before they could begin dividing. […] In each case, parallel titrations were performed with or without the addition of anti-CD3 mAb. […] In the absence of Tregs there was substantial proliferation of T cells in co-cultures, despite the presence of IDO^+ pDCs. However, the addition of fewer than 5000 Tregs was sufficient to suppress proliferation of all cells in culture. […] Thus, the results of the mixed co-culture model were similar to those using the separate pre-activation and re-sorting step.
# In FIG. 12A, mixed co-cultures were established as in FIG. 11, comprising Treg activation cultures (IDO^+ pDCs, OT-I cells, Tregs, and feeder layer) plus the direct addition of CFSE-labeled CD4^+ sorted A1 T cells plus CBA DCs plus HY peptide. After 2-3 days the mixed co-cultures were harvested and stained for CD25 versus CFSE. […] In FIG. 12B, IDO-activated Tregs were sorted as described in FIG. 2 and added to readout assays of A1 cells plus CBA DCs plus HY peptide. […]
# Tregs in TDLNs = settings: sustained-release 1MT throughout tumor growth
# Method: Recombinant mouse IL-2 (R&D Systems) was used at 10 ng/ml.
# Tregs from day seven TDLNs were sorted and added to readout assays (A1 T cells plus CBA DCs), with and without PD-1/PD-L blocking antibodies. […] Tregs from day seven tumors were tested in readout assays as above, with added isotype, PD-1/PD-L blocking antibodies, or a combination of anti-PD-1/PD-L plus IL-2 plus anti-IL-10/TGF-β antibodies.
# Lewis Lung carcinoma = settings: Friberg et al., 2002; cited from earlier work
# P815 = settings: Uyttenhove et al., 2003; concomitant administration of 1-MT; cited from earlier work
# IDO-activated Tregs = test: Readout assays: suppression of A1 T cell proliferation by IDO-activated Tregs (agent in readout assay); type: cell-based, mouse; settings: agent added to readout assay (A1 T cells + wild-type CBA DCs); antibodies 50 ug/ml each
# Method: Treg activation culture and readout assays. […] The pDC fraction (CD11c^+B220^+) was sorted from 2-6 pooled TDLNs (day 7-11 of tumor growth) and collected in medium on ice. […] All cultures received a feeder layer of 1×10^5 T cell-depleted spleen cells (CD4^NEGCD8^NEG), as described below. […] After two days, cultures were harvested, stained for CD4, and Tregs isolated by sorting for CD4^+ cells. […] Re-sorted Tregs were added to readout assays containing 1×10^5 A1 cells, 2×10^3 CD11c^+ DCs from CBA spleen (or 5×10^4 B cells, as CD11c^NEG B220^+ spleen cells), plus H-Y peptide. For assays performed in transwells, Multiwell 96-well insert plates (1 uM pore size, BD-Falcon) were used and the number of cells in all groups was doubled.
# anti-CD3-activated Tregs = test: Readout assays: suppression by anti-CD3/IL-2-activated Tregs; type: cell-based, mouse; settings: agent added to readout assay
# Method: Treg activation culture and readout assays. […] The pDC fraction (CD11c^+B220^+) was sorted from 2-6 pooled TDLNs (day 7-11 of tumor growth) and collected in medium on ice. Pre-activation cultures contained 2×10^3 pDCs, 1×10^5 sorted CD8^+ OT-I cells, 100 nM […] peptide (SEQ ID NO:1), and 5×10^3 sorted CD4^+CD25^+ Tregs from spleens of B6 mice without tumors. All cultures received a feeder layer of 1×10^5 T cell-depleted spleen cells (CD4^NEGCD8^NEG), as described below. […] After two days, cultures were harvested, stained for CD4, and Tregs isolated by sorting for CD4^+ cells. […] Re-sorted Tregs were added to readout assays containing 1×10^5 A1 cells, 2×10^3 CD11c^+ DCs from CBA spleen (or 5×10^4 B cells, as CD11c^NEG B220^+ spleen cells), plus H-Y peptide. For assays performed in transwells, Multiwell 96-well insert plates (1 uM pore size, BD-Falcon) were used and the number of cells in all groups was doubled.
# After 24 hours, cultures were harvested and stained for PD-L1 and PD-L2 relative to CD11c. […] In FIG. 3D, IDO-activated Tregs (1×10^4/well) and anti-CD3/IL-2-activated Tregs (2×10^4/well) were prepared as in the previous panel, and added to readout assays with or without recombinant IL-2, anti-IL-10 plus anti-TGF-β blocking antibodies (100 μg/ml each), or PD-1/PD-L blocking antibodies. Bars show SD for replicate wells in one of four similar experiments; *p<0.01 by ANOVA.
molecule,measurement,setting,value
O=P1(N(CCCl)CCCl)NCCCO1 (centres unmarked) [cyclophosphamide],suppressor activity of TDLN cells after in vivo treatment,"TDLN cells; B78H1-GMCSF tumors treated day 11, CY 150 mg/kg, 1MT pellets, TDLN cells 7 days later, readout BM3 T cells + B6 splenocytes",only slightly
"Cn1cc(C[C@@H](N)C(=O)O)c2ccccc21 [1MT, 1-methyl-D-tryptophan]",IDO-induced Treg activation (suppressor activity of re-sorted Tregs in readout assays),Tregs [1],no suppressor activity; also recorded: complete abrogation of activation; also recorded: minimal suppression; also recorded: completely abolished
same,Treg activation,Tregs [1]; feeder layer replaced by recombinant cytokines (IFNα + IL-10 + TGF-β1),abrogated
same,CHOP expression in OT-I cells,CHOP,abrogated
same,CHOP induction in Tregs,CHOP; anti-Ia^b 100 ug/ml,prevented
same,cell division of A1 cells (CFSE),Foxp3; CFSE-labeled A1 and OT-I cells,divided
same,upregulation of Foxp3 in A1 cells,"Foxp3; with H-Y peptide, 2 days",prevented
same,activation of host Tregs by DCs from TDLNs,Tregs [2],blocked
same,1B11 activation marker on OT-I in TDLNs,OT-I cells in TDLNs; oral 1MT 2 mg/ml in drinking water,uniformly upregulate
same,cell division of OT-I in TDLNs (CFSE),OT-I cells in TDLNs; oral 1MT,not able to undergo extensive cell division
same,suppression by TDLN cells of untreated control mice,TDLN cells; 1MT added to the readout assays,not affected
same,PD-ligand expression by DCs in readout assays,PD-L1 and PD-L2,low
same,suppressor activity of Tregs in mixed co-cultures,"Tregs [3]; IDO blocked by 1MT, 10-fold more Tregs, absence of anti-CD3 mAb",no spontaneous suppressor activity
same,division of A1CFSE cells in mixed co-cultures,"Tregs [3]; plus 1MT, 2-3 days",able to divide
same,PD-1/PD-L-dependent type of Treg activity in TDLNs,Tregs in TDLNs,none
same,tumor outgrowth,Lewis Lung carcinoma,significantly delayed
same,effect of IDO transfection of P815 on tumor growth in pre-immunized hosts,P815,substantially reversed
N[C@@H](Cc1c[nH]c2ccccc12)C(=O)O [tryptophan],IDO-induced Treg activation (suppressor activity of re-sorted Tregs in readout assays),Tregs [1],blocked
"recombinant IL-2: Recombinant mouse IL-2 (R&D Systems), used at 10 ng/ml (protein, UniProt P04351 21-169, looked up) Interleukin-2: APTSSSTSSSTAEAQQQQQQQQQQQQHLEQLLMDLQELLSRMENYRNLKLPRMLTFKFYLPKQATELKDLQCLEDELGPLRHVLDLTQSKSFQLEDAENFISNIRVTVVKLKGSDNTFECQFDDESATVVDFLRRWIAFCQSIISTSPQ",suppression of T cell proliferation by IDO-activated Tregs,IDO-activated Tregs,no effect
same,suppression by anti-CD3-activated Tregs,anti-CD3-activated Tregs,fully reversed
